# Laboratory results published in patent US4016254A, “Pharmaceutical formulations” (Beecham Group Limited, priority 1972, dated 1977).
# Experiments:
# Assay type in all cases: physicochemical
# [1] = Potency, Examples 15-56 (determined in conventional manner)
# Experimental: The moisture contents of these powders were determined by the Karl Fischer method. The potency of the product was determined in conventional manner.
# [2] = Flow properties: angle of repose
# [3] = Bulk densities, Examples 1-14
smiles,measurement,setting,value
"CC1(C)S[C@@H]2[C@H](NC(=O)[C@H](N)c3ccccc3)C(=O)N2[C@H]1C(=O)O [ampicillin trihydrate raw material, ampicillin trihydrate]",Potency of ampicillin trihydrate raw materials,[1]; raw material of Examples 15-29 and 41-48,83%
same,Potency of ampicillin trihydrate raw materials,[1]; raw material of Examples 30-40,84%
same,Potency of ampicillin trihydrate raw materials,[1]; raw material of Examples 49-56,86%
same,Angle of repose of raw material,[2],64 °
same,Bulk Density,[3],0.67
